Reference: publication PMC3127123, “Effect of 2-Hydroxypropyl-β-cyclodextrin on Solubility of Sparingly Soluble Drug Derivatives of Anthranilic Acid” (International Journal of Molecular Sciences, 2011)
Converted amounts (≈) assume the structure as drawn. Read-outs that look alike come from different tables or passages of the source.

Assays:
[1] = Phase solubility study: drug solubility in buffer solutions by UV-vis spectrophotometry; type: physicochemical; details: buffer solution without cyclodextrin, thermodynamic from solid, no cyclodextrin, read-out: solubility (C) in water (buffer solution), CD
Description: The calibration curves are included in these figures. The absorption spectra were recorded in the range of 190–350 nm and for the calculation of […] the change of absorption was measured at 340 nm (pH 7.0), 195 nm (pH 2.0) for MEF; 245 nm (pH 7.0), and 250 nm (pH 2.0) for NIF and 255 nm (pH 7.0), and 225 nm (pH 2.0) for FLU, respectively.
The UV-Vis spectrophotometer (Perkin–Elmer Life and Analytical Sciences, Shelton, USA) was used to determine the 2HP-β-CD influence on drug solubility. Maximum drug concentration was measured at different cyclodextrins concentrations, temperatures and pHs. Samples contained buffer solution with pH 7 or 2, 2HP-β-CD in different concentrations, i.e., 0, 1, 2, 4, 7 or 10 mmol·dm^−3 and drug in excess. Samples were thermostated and mixed for 20 hours and then left for 4 hours for separation. The uncertainties of the temperature measurements were judged to be 0.1 K. Absorbance of each sample was measured with the UV-vis spectrophotometer.
The stability constants were determined by the measurements of the concentration of the drug in the sample as a function of the cyclodextrin concentration. Such a method is usually called “Phase solubility study” [31]. In this method complex stability constants are calculated from the obtained solubility data using a spectophotometric method. As a reference sample, the buffer + 2HP-β-CD solutions were used. Two buffers were prepared (mol concentration) i.e., potassium dihydrogen phosphate (0.008), disodium hydrogen phosphate (0.008; buffer, pH = 7.0), potassium dihydrogen phosphate (0.05), hydrochloric acid (0.05, buffer, pH = 2.0). Samples were scanned with a scan step of 1 nm from 650 to 190 nm. Measurements at pH = 10 were not performed in all systems, because of the necessity of using too high drug concentrations and because of problems with separation of two phases.

[2] = Thermodynamic parameters of complexation from temperature dependence of stability constant (van't Hoff); type: physicochemical; details: T = 298.15 K, pH = 7 (buffer solution)
Description: Thermodynamic parameters of reactions i.e. the free energy change (ΔG), the enthalpy change (ΔH) and the entropy change (ΔS), can be obtained from the temperature dependence of stability constant.

[3] = Phase solubility study: effect of 2HP-β-CD on drug solubility and cyclodextrin-drug complex stability/dissociation constants; type: physicochemical; details: for cyclodextrin-drug complex stability constant Ks: 1:1 complex, Higuchi-Connors; for Kd: Kd = 1/Ks, value is Kd multiplied by 10^3, read-out: dissociation constant Kd·10^3; for solubility enhance ratio (R): drug concentration at highest 2HP-β-CD concentration relative to no cyclodextrin; for stability constant log Ks: pH = 7, T = 298.15 K, our value, phase solubility
Description: Solubility enhance ratio, R, was calculated as a drug concentration at the highest cyclodextrin concentration with relation to drug concentration in the absence of cyclodextrin. […] The opposite effect is observed for NIF. […] In general, when the solubility of the drug is very low, the solubility enhance ratio, R is high. Substitution of hydroxyl groups surrounding the 2HP-β-CD rim by the hydroxypropyl group promotes the complex formation process for drug derivatives of anthranilic acid with polar carboxylic substituent. […] Measurements of cyclodextrin-drug complex stability constants Ks and dissociation constants Kd are very important since these values indicate changes in physicochemical properties of a compound upon inclusion. Linear dependence of drug concentration to cyclodextrin concentration, with slope ratio below one usually assumes 1:1 ratio of complex. The stability constant, Ks, for complexes with 1:1 ratio is represented by: (1) Ks=[CD]/[D]⋅[C] Where: [D] is pure drug concentration, [C] is pure cyclodextrin concentration, and [CD] is concentration of drug-cyclodextrin complexes in solution. Complex dissociation constant, Kd, is represented by: […] For such systems, stability constant can be obtained by the following equation, investigated previously by Higuchi and Connors, 1965 [25]: (3) Ks=K1:1=slope/c0⋅(1−slope) […] Maximum drug concentration was measured at different cyclodextrins concentrations, temperatures and pHs. […] Samples were thermostated and mixed for 20 hours and then left for 4 hours for separation. The uncertainties of the temperature measurements were judged to be 0.1 K. Absorbance of each sample was measured with the UV-vis spectrophotometer. The stability constants were determined by the measurements of the concentration of the drug in the sample as a function of the cyclodextrin concentration. Such a method is usually called “Phase solubility study” [31]. In this method complex stability constants are calculated from the obtained solubility data using a spectophotometric method. As a reference sample, the buffer + 2HP-β-CD solutions were used. Two buffers were prepared (mol concentration) i.e., potassium dihydrogen phosphate (0.008), disodium hydrogen phosphate (0.008; buffer, pH = 7.0), potassium dihydrogen phosphate (0.05), hydrochloric acid (0.05, buffer, pH = 2.0). Samples were scanned with a scan step of 1 nm from 650 to 190 nm. Measurements at pH = 10 were not performed in all systems, because of the necessity of using too high drug concentrations and because of problems with separation of two phases.

[4] = T = 298.15 K, cited from earlier work
[5] = cited from earlier work
[6] = parameters: method as in earlier work; details: aqueous ethanol; cited from earlier work
[7] = pH 2, aqueous buffer, pH 2, T = 298.15 K
[8] = pH 2, aqueous buffer, pH 2, T = 310.15 K
[9] = pH 7, aqueous buffer, pH 7, T = 298.15 K
[10] = pH 7, aqueous buffer, pH 7, T = 310.15 K
[11] = previous work, densimetry and 1H NMR measurements

Structure (SMILES)	solubility at 20 h [1, 7] [µM]	solubility at 20 h [1, 8] [µM]	solubility at 20 h [1, 9] [µM]	solubility at 20 h [1, 10] [µM]	entropy change (ΔS) of complexation [2] [J·mol^−1·K^−1]	cyclodextrin-drug complex stability constant Ks ([3]; pH 2, T = 298.15 K) [M⁻¹]	Kd ([3]; pH 2, T = 298.15 K) [mM]	solubility enhance ratio (R) ([3]; pH 2, T = 298.15 K)	cyclodextrin-drug complex stability constant Ks ([3]; pH 2, T = 310.15 K) [M⁻¹]	Kd ([3]; pH 2, T = 310.15 K) [mM]	solubility enhance ratio (R) ([3]; pH 2, T = 310.15 K)	cyclodextrin-drug complex stability constant Ks ([3]; pH 7, T = 298.15 K) [M⁻¹]	Kd ([3]; pH 7, T = 298.15 K) [mM]	solubility enhance ratio (R) ([3]; pH 7, T = 298.15 K)	cyclodextrin-drug complex stability constant Ks ([3]; pH 7, T = 310.15 K) [M⁻¹]	Kd ([3]; pH 7, T = 310.15 K) [mM]	solubility enhance ratio (R) ([3]; pH 7, T = 310.15 K)	stability constant log Ks [3]	free energy change (ΔG) of complexation [2] [kJ/mol]	also measured
O=C(O)c1ccccc1Nc1cccc(C(F)(F)F)c1 [Flufenamic acid]	6 (≈ 1.69 µg/mL)	15 (≈ 4.22 µg/mL)	228 (≈ 64.1 µg/mL)	298 (≈ 83.8 µg/mL)	50.2	3055	0.33	31.0	1850	0.54	19.0	202	4.95	2.9	218	4.59	3.0	2.30	–	solubility in water [4]: 2.38 × 10^−2 mmol·dm^−3; stability constant log Ks ([5]; phase-solubility diagrams, pH = 6.75, T = 298.15 K): 2.36
Cc1cccc(Nc2ccccc2C(=O)O)c1C [Mefenamic acid]	1 (≈ 0.241 µg/mL)	1 (≈ 0.241 µg/mL)	155 (≈ 37.4 µg/mL)	220 (≈ 53.1 µg/mL)	−33.0	539	1.86	6.4	1627	0.62	17.3	383	2.61	4.6	562	1.78	6.0	–	-14.7	solubility in water ([4]; pH between 3 and 6): 0.87 × 10^−4 mmol·dm^−3
O=C(O)c1cccnc1Nc1cccc(C(F)(F)F)c1 [Niflumic acid]	698 (≈ 197 µg/mL)	925 (≈ 261 µg/mL)	5750 (≈ 1620 µg/mL)	8170 (≈ 2310 µg/mL)	4.3	26	38.9	1.3	33	29.2	1.3	96	10.4	1.6	82	12.2	1.5	1.98	-11.3	enthalpy change (ΔH) of complexation [2]: -10.0 kJ/mol; stability constant log Ks ([5]; 1H NMR, pH = 7.4, T = 298.15 K): 2.3; free energy change (ΔG) of complexation ([5]; T = 298.15 K, pH = 7.4): -12.3 kJ/mol; stability constant log Ks ([5]; UV-vis, pH = 7.4, T = 298.15 K): 3.09; stability constant log Ks ([5]; calorimetric measurements, pH = 7.4, T = 298.15 K): 2.2; stability constant log Ks ([5]; densimetry, pH = 7.4, T = 298.15 K): 2.8; stability constant log Ks ([5]; pH = 7, T = 298.15 K, cyclodextrin not named at the place): 2.72; stability constant log Ks ([5]; pH = 12, T = 298.15 K, cyclodextrin not named at the place): 2.53; enthalpy of complexation [5, 11]: -20.1 kJ/mol; entropy of complexation [5, 11]: negative
Oc1cc(Cl)ccc1Oc1ccc(Cl)cc1Cl [triclosan]	–	–	–	–	–	–	–	–	–	–	–	–	–	–	–	–	–	–	–	solubility increase on complexation with 2HP-β-CD [6]: 70 fold
